Reference: PMC9551036, “A selective and orally bioavailable VHL-recruiting PROTAC achieves SMARCA2 degradation in vivo” (Nature Communications, 2022)
Values joined by “and” are separate entries in the source; they are usually repeats but may differ in a detail not shown here. Equal entries are not always repeated. Where two headings read alike, the source gives them in different places.

How the values were obtained:
NCI-H1568 cells = assay: Cell viability assay (CellTiter Glo) in NCI-H1568; format: cell-based, human; settings: for IC50: NCI-H1568, (18h), CellTiter Glo, individual replicates, read-out: NCI-H1568 (18h) CTG;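 as to % Viability: percent of DMSO-treated control cells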
Procedure: 500–2000 cells were seeded in white, clear bottom 96-well plates (Corning or Perkin Elmer) in 180–200 µl medium per well. The next day, compounds were added using a digital dispenser and a T0 sample was measured for reference. […], and viability (luminescence) was measured using CellTiter Glo or CellTiter Glo 2.0 (Promega) according to manufacturer’s instructions after equilibrating cells and reagents at room temperature and 10–20 min incubation time while shaking.

SMARCA2 [1] = target: T1, SMARCA2 (Homo sapiens, UniProt P51531); assay: Imaging-based SMARCA2 protein assay in RKO cells; format: cell-based; set-up: endogenous in cells; host or cells: RKO, NCI-H1568, A549, HCT116, LU99, HCC-364, HCT-15, HCC4006, SK-N-AS; settings: individual replicates
Procedure: 1250 cells per well in 60 µl medium were plated in flat bottom, poly-lysin coated 384-well plates (CellCarrier Ultra, Perkin Elmer). The next day, test compounds (10 µl of serial dilutions) and DMSO controls were diluted in DMEM medium such that the final DMSO content was <1% or were added using an ultrasound dispensing system. 4 wells were reserved for a background measurement. […] After aspirating the fixing solution, the cells were washed once with 25 µl PBS. 25 µl of blocking buffer (10% goat serum in PBS) was added and cells were incubated for 30 min, then washed once with PBS. […] Cells were again washed once with PBS. […] The cell layer was then washed once with 25 µl PBS, the wells were filled with 25 µl PBS and the plates were sealed with an adhesive sheet. They were then imaged on the Opera Phoenix (mean intensity in the nucleus). […] EC50 values were computed using a 4-parametric logistic model.

[2] = target: VCB: PROTAC: SMARCA2^BD ternary complex (Homo sapiens, UniProt P40337+P51531); assay: TR-FRET ternary complex affinity and cooperativity, SMARCA2; format: binding; set-up: P51531-2, residues 1373-1493 with additional N-terminal SM residues; GST (TEV site) (N); His6 (TEV site) (N, cleaved yes); made in house; host or cells: SMARCA2^BD: Escherichia coli BL21(DE3)
PBRM1 BD = target: T2, PBRM1 BD (Homo sapiens, UniProt Q86U86); assay: TR-FRET binary and ternary (PROTAC + VCB) affinity, PBRM1 bromodomain; format: binding; settings: individual replicates
T2 construct: GST (TEV site) (N); made in house; host or cells: Escherichia coli BL21(DE3)

PBRM1BD5 = target: T3, PBRM1BD5 (Homo sapiens, UniProt Q86U86); assay: TR-FRET ternary complex affinity and cooperativity, PBRM1; format: binding
T3 construct: GST (TEV site) (N); His6 (TEV site) (N, cleaved yes); made in house; host or cells: PBRM1^BD5: Escherichia coli BL21(DE3)

SMARCA2 [3] = target: T1, SMARCA2; assay: SMARCA2 capillary electrophoresis protein assay in RKO cells; format: cell-based; set-up: endogenous in cells; host or cells: RKO, NCI-H1568, A549, HCT116, LU99, HCC-364, HCT-15, HCC4006, SK-N-AS
Procedure: 130,000–200,000 cells were seeded in 24-well plates and incubated until settled down or overnight. Compounds were dissolved in DMSO and added to cells in indicated concentrations using a digital dispenser following an optional media change. […] For SMARCA2/4 half-life determination, 150,000 or 200,000 cells were seeded in 24-well plates. […] For SMARCA2/4 re-synthesis measurements, 200,000 cells were seeded in 24-well plates. […] Medium was removed, cells were washed with PBS and lysed with 80 µl Lysis Buffer (MSD Tris Lysis Buffer (#R60TX-2) + Halt Inhibitor Cocktail (100x) + Benzonase 0.5 µL/ml). Samples were frozen at −80 °C and thawed at room temperature before use. Samples were transferred to a V-bottom plate and insoluble debris was pelleted by centrifugation for 5 min at maximum speed. The supernatant was transferred to a fresh plate. Master Mix and Ladder were prepared according to manufacturer’s instructions for 12–230 kDa Wes Separation Module, 8 × 25 capillary cartridges, Protein Simple #SM-W004 with Anti-Rabbit Detection Module for Wes, Peggy Sue or Sally Sue, Protein Simple #DM-001. 4.8 µl lysate were mixed with 1.2 µl Master Mix to achieve a protein concentration of ~0.5 µg/µl. […] Wes plates were prepared and run according to manufacturer’s instructions. Proteins were quantified with accompanying Compass Software. SMARCA2/4 protein levels were normalised to GAPDH. […] Where applicable, curves were fitted using a 4-parametric logistic model.

[4] = 4h, read-out: RKO (4h) SMARCA2 DC50
[5] = 18h, read-out: RKO (18h) SMARCA2 DC50
[6] = PROTAC + VCB, individual replicates, read-out: Ternary SMARCA2 BD EC50 (PROTAC + VCB)
[7] = TR-FRET competition for SMARCA2BD, + VCB, mean ± SD, read-out: TR-FRET Ternary SMARCA2BD EC50 (PROTAC + VCB)
[8] = NCI-H1568 ([…]), mean ± SD, read-out: EC50 cell proliferation (CellTiter Glo)
[9] = PROTAC + VCB, read-out: Ternary PBRM1 BD EC50 (PROTAC + VCB)
[10] = binary, PROTAC alone, read-out: PBRM1 EC50
[11] = TR-FRET competition for PBRM1BD5, without VCB, mean ± SD, read-out: TR-FRET PBRM1BD EC50

Sequence of VCB: PROTAC: SMARCA2^BD ternary complex (P51531 with tags, fused parts or gaps isoform P51531-2): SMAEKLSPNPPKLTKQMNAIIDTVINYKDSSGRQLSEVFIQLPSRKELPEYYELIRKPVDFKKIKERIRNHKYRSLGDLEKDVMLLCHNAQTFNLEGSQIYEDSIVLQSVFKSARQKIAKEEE
Sequence of VCB: PROTAC: SMARCA2^BD ternary complex (P40337 54-213): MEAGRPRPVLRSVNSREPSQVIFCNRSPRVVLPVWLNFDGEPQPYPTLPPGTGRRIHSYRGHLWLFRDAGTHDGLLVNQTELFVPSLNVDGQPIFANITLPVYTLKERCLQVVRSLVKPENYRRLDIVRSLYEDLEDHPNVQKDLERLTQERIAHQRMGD
Sequence of VCB: PROTAC: SMARCA2^BD ternary complex (Q15369 17-112 partner): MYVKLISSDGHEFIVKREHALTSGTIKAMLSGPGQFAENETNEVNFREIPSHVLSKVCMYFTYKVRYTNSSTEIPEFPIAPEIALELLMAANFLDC
Sequence of VCB: PROTAC: SMARCA2^BD ternary complex (Q15370 1-104 partner): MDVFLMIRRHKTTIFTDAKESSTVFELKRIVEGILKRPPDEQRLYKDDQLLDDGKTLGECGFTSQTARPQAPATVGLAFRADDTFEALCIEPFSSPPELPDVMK
T3 sequence (Q86U86 645-766): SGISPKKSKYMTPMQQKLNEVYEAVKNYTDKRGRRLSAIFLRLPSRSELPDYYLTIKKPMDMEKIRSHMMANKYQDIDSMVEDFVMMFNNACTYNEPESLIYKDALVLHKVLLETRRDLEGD
T1 sequence (P51531 whole entry): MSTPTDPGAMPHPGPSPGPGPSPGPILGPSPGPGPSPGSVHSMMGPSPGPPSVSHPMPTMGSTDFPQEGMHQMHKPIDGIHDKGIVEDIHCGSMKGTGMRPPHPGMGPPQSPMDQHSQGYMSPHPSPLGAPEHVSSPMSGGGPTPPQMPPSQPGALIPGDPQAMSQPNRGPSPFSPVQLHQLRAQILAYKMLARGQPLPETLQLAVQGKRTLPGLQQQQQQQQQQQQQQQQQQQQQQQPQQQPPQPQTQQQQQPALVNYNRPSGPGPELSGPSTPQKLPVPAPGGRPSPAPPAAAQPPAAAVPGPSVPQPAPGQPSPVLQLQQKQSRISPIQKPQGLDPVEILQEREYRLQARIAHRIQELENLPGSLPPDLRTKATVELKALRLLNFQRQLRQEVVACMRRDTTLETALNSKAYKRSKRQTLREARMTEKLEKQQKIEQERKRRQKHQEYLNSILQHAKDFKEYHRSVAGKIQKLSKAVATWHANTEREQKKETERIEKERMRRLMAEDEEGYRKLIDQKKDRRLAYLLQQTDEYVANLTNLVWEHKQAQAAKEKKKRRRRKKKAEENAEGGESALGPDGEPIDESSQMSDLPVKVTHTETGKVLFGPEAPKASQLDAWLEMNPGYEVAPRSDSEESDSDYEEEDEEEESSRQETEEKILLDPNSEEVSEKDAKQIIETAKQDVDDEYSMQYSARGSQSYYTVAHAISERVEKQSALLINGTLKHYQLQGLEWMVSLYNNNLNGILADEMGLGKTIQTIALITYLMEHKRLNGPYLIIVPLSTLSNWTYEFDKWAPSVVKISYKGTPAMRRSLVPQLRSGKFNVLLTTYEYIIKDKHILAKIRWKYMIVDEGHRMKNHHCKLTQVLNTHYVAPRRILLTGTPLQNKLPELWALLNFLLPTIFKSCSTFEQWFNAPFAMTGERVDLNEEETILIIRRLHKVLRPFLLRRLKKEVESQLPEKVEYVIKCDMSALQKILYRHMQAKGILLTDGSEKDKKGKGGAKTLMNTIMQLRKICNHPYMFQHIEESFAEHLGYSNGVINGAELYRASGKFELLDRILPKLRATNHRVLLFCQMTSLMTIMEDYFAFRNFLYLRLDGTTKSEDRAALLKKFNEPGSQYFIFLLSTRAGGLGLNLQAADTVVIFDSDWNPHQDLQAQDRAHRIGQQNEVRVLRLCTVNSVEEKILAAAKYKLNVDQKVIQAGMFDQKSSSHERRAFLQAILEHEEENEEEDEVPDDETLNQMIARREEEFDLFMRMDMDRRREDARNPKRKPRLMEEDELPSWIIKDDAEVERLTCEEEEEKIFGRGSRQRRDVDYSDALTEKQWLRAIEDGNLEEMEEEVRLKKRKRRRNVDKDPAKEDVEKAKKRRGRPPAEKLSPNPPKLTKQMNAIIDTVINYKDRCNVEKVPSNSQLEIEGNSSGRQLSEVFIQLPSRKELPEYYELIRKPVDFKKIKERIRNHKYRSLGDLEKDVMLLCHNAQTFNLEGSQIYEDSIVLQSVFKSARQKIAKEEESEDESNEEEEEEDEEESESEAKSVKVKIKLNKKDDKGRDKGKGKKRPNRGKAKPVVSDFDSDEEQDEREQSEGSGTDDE

Cc1ncsc1-c1ccc(C(CCC(C)CCN2CCC(c3ccc4c(c3)n(C3CCCC3)c3nc(=O)c5c(Br)cccc5n43)CC2)NC(=O)C2CC(O)CN2C(=O)C(NC(=O)C2(F)CC2)C(C)(C)C)cc1 (centres unmarked) [ACBI2]
EC50 (NCI-H1568 cells; Homo sapiens, NCI-H1568, assay not given, read-out: EC50): 7 nM
EC50 (NCI-H1568 cells; Homo sapiens, NCI-H1568, read-out: LogEC50 (viability) (converted)): 7.43 nM
EC50 (NCI-H1568 cells; Homo sapiens, NCI-H1568, values derived from curves in Extended Fig 4b, read-out: EC50 mean): 7.43 nM
Bottom (% Viability, four-parameter fit) (NCI-H1568 cells; NCI-H1568): 1.886%
HillSlope (viability) (NCI-H1568 cells; NCI-H1568): -1.08
Top (% Viability, four-parameter fit) (NCI-H1568 cells; NCI-H1568): 95.68%
IC50 (NCI-H1568 cells): 6.58 nM and 10.7 nM and 3.99 nM and 10.8 nM and 11.1 nM and 3.71 nM
% Viability (NCI-H1568 cells; NCI-H1568, log10 conc -5 mol/l): -0.296% and -0.02611% and -0.1217% and 0.4768% and -0.2501%
% Viability (NCI-H1568 cells; NCI-H1568, log10 conc -5.30103 mol/l): -0.06113% and -0.2267%
% Viability (NCI-H1568 cells; NCI-H1568, log10 conc -5.50031 mol/l): 0.1326% and 0.2417% and 0.02451% and 0.1536% and 0.8908%
% Viability (NCI-H1568 cells; NCI-H1568, log10 conc -5.90309 mol/l): 0.4837%
% Viability (NCI-H1568 cells; NCI-H1568, log10 conc -6.50446 mol/l): 2.441% and 0.7903%
% Viability (NCI-H1568 cells; NCI-H1568, log10 conc -7.10735 mol/l): 8.308% and 6.732%
% Viability (NCI-H1568 cells; NCI-H1568, log10 conc -8.31158 mol/l): 56.5669% and 89.3041%
% Viability (NCI-H1568 cells; NCI-H1568, log10 conc -8.91364 mol/l): 76.9492% and 107.085%
% Viability (NCI-H1568 cells; NCI-H1568, log10 conc -9.5157 mol/l): 76.1437% and 99.3609%
% Viability (NCI-H1568 cells; NCI-H1568, log10 conc -10 mol/l): 102.65% and 94.5594% and 117.406% and 60.7547% and 106.867%
% Viability (NCI-H1568 cells; NCI-H1568, log10 conc -10.1175 mol/l): 83.2326% and 93.6592%
% Viability (NCI-H1568 cells; NCI-H1568, log10 conc -10.5003 mol/l): 109.307% and 95.7558% and 110.528% and 76.6212%
DC50 (SMARCA2 [1]; [4]): 3.55 nM and 1.63 nM and 1.77 nM and 3.45 nM and 4.01 nM and 4.03 nM and 3.11 nM
DC50 (SMARCA2 [1]; [5]): 2 nM and 2.28 nM and 1.37 nM and 1.63 nM and 1.15 nM and 1.22 nM and 1.53 nM and 0.997 nM and 1.43 nM and 0.892 nM
EC50 [2, 6]: 40 nM and 41.1 nM and 43.2 nM and 39.8 nM and 44 nM
EC50 [2, 7]: 42 ± 2 nM
EC50 (PBRM1 BD; PBRM1 EC50, binary, PROTAC alone): 59.3 nM and 67.2 nM and 77.7 nM
EC50 (PBRM1 BD; Ternary PBRM1 BD EC50 (PROTAC + VCB), PROTAC + VCB): 3.83 nM and 5.7 nM and 5.49 nM
EC50 (PBRM1BD5): 67 ± 9 nM
DC50 (SMARCA2 [3]; RKO (4 h), mean ± SD): 4 ± 1 nM
window of SMARCA2 over SMARCA4 degradation (SMARCA2 [3]; RKO cells): > 30 fold
DC50 (SMARCA2 [3]; RKO cells, time not stated at the place (Supplementary Data 2)): 1 nM
Dmax (SMARCA2 [3]; RKO, RKO (4 h), mean ± SD): 71 ± 2%
Dmax (SMARCA2 [3]; RKO, RKO (18 h), mean ± SD): 81 ± 7%
Bottom (% protein remaining, four-parameter fit) (SMARCA2 [3]; RKO, SM2): 21.72%
HillSlope (protein remaining) (SMARCA2 [3]; RKO, SM2): -0.9367
Top (% protein remaining, four-parameter fit) (SMARCA2 [3]; RKO, SM2): 158.8%

Cc1ncsc1-c1ccc(CNC(=O)[C@@H]2C[C@@H](O)CN2C(=O)[C@@H](NC(=O)C2(F)CC2)C(C)(C)C)c(OCCOCCOCCOCCN2CCC(c3ccc4c(c3)n(C3CCCC3)c3nc(=O)c5c(Br)cccc5n43)CC2)c1 [compound 22]
EC50 (NCI-H1568 cells; [8]): 187 ± 76 nM
IC50 (NCI-H1568 cells): 280 nM and 175 nM and 133 nM
DC50 (SMARCA2 [1]; [4]): 85.8 nM and 400 nM and 157 nM
DC50 (SMARCA2 [1]; [5]): 97.4 nM and 276 nM and 121 nM
EC50 [2, 6]: 95.1 nM and 86.8 nM and 90.2 nM and 144 nM
EC50 [2, 7]: 102 ± 27 nM
EC50 (PBRM1 BD; [9]): 33.2 nM and 39.2 nM and 42.6 nM
EC50 (PBRM1 BD; [10]): 84.2 nM and 107 nM and 111 nM (2×)
EC50 (PBRM1BD5; [11]): 103 ± 13 nM
DC50 (SMARCA2 [3]; RKO (4 h), mean ± SD): 175 ± 165 nM
SMARCA2 Dmax (SMARCA2 [3]; RKO (4 h), mean ± SD): 71 ± 25%
DC50 (SMARCA2 [3]; RKO (18 h), mean ± SD): 148 ± 97 nM
SMARCA2 Dmax (SMARCA2 [3]; RKO (18 h), mean ± SD): 75 ± 8%

Cc1ncsc1-c1ccc(CNC(=O)[C@@H]2C[C@@H](O)CN2C(=O)[C@@H](NC(=O)C2(F)CC2)C(C)(C)C)c(OCCCCN2CCC(c3ccc4c(c3)n(C3CCCC3)c3nc(=O)c5c(Br)cccc5n43)CC2)c1 [compound 23]
EC50 (NCI-H1568 cells; [8]): 104 ± 27 nM
IC50 (NCI-H1568 cells): 133 nM and 78.5 nM and 108 nM
DC50 (SMARCA2 [1]; [5]): 30 nM and 50 nM and 40 nM
EC50 [2, 6]: 115 nM and 127 nM and 132 nM and 372 nM
EC50 [2, 7]: 164 ± 124 nM
EC50 (PBRM1 BD; [9]): 18.3 nM and 22.9 nM and 22.1 nM
EC50 (PBRM1 BD; [10]): 46.2 nM and 37.9 nM and 38.2 nM and 36.1 nM
EC50 (PBRM1BD5; [11]): 39 ± 5 nM
DC50 (SMARCA2 [3]; RKO (4 h), mean ± SD): > 25000 nM
DC50 (SMARCA2 [3]; RKO (18 h), mean ± SD): 39 ± 10 nM
SMARCA2 Dmax (SMARCA2 [3]; RKO (18 h), mean ± SD): 37 ± 5%

Cc1ncsc1-c1ccc([C@H](COCCCN2CCC(c3ccc4c(c3)n(C3CCCC3)c3nc(=O)c5c(Br)cccc5n43)CC2)NC(=O)[C@@H]2C[C@@H](O)CN2C(=O)[C@@H](NC(=O)C2(F)CC2)C(C)(C)C)cc1 [compound 27]
EC50 (NCI-H1568 cells; [8]): 13 ± 1 nM
IC50 (NCI-H1568 cells): 14.2 nM and 12 nM and 13.3 nM
DC50 (SMARCA2 [1]; [4]): 5.2 nM and 2.76 nM and 5.65 nM and 7.65 nM
DC50 (SMARCA2 [1]; [5]): 1.7 nM and 2.99 nM and 2.34 nM
EC50 [2, 6]: 29.5 nM and 30.9 nM and 30.6 nM and 24.4 nM and 46.9 nM and 21.2 nM and 34.9 nM and 23.9 nM
EC50 [2, 7]: 29 ± 8 nM
EC50 (PBRM1 BD; [9]): 2.18 nM and 2.66 nM and 2.87 nM and 2.65 nM and 2.69 nM and 3.64 nM and 3.28 nM
EC50 (PBRM1 BD; [10]): 32.7 nM and 35.1 nM and 34.6 nM and 30.3 nM and 34.2 nM and 22.8 nM and 45.7 nM
EC50 (PBRM1BD5; [11]): 33 ± 7 nM
DC50 (SMARCA2 [3]; RKO (4 h), mean ± SD): 5 ± 2 nM
SMARCA2 Dmax (SMARCA2 [3]; RKO (4 h), mean ± SD): 70 ± 7%
DC50 (SMARCA2 [3]; RKO (18 h), mean ± SD): 2 ± 1 nM
SMARCA2 Dmax (SMARCA2 [3]; RKO (18 h), mean ± SD): 85 ± 3%
